In US6518339B1, “Aldehyde emission reduction for dibenzylidene sorbitol clarified plastics” (Milliken & Company, priority 2000, dated 2003):

Tests used:
[1] = Water solubility of the hydrazide/aldehyde reaction product; assay type: physicochemical; details: tap water; precipitate from adipic dihydrazide and 4-methylbenzaldehyde
Experimental: The reaction product of hydrazide and aldehyde was then tested for water solubility. The test involved the following: To a 10-ounce sample vial was charged 30 ml of tap water and 0.14 g (0.8 mmol) of adipic dihydrazide. This mixture was shaken until a clear, colorless solution was obtained. 4-Methylbezaldehyde (0.14 g, 1.3 mmol) was added to the solution and the mixture was shaken for one minute, immediately precipitating a white solid. The mixture was then allowed to stand for an additional ten minutes, followed by collection of the solids by suction filtration to obtain […] of the (bis 4-methyl)adiponylbis(hydrazone).

[2] = Retort test, UV/VIS measurement of extracted aldehyde (Japanese Pharmacopoeia protocol); details: hydrazide in formulation with 3,4-DMDBS, versus 3,4-DMDBS alone
Experimental: Testing was then conducted to determine the extent of aldehyde extraction from the compounded plastics. The testing procedures were as follows: Retort testing was performed per the Japanese Pharmacopoeia protocol (Japanese Pharmacopoeia, 13th ed. 1996: 76-82). Seven 50-mil plaques of each formulation were cut into 9 strips, rinsed with water, and placed into clean 1 quart Mason jars containing 200 ml of deionized water. The jars were covered with aluminum foil and autoclaved for 1 hour. The extraction water was then analyzed for UV absorbance between 220-240 nm and from 241-350 nm, after a suitable blank had been tested. Powderless latex gloves were worn during the entire procedure.

Water solubility, in words [1]	melting point [°C]	Structure (SMILES)	Reduction of peak absorbance between 220-240 nm [2] [%]	Reduction of peak absorbance between 241-350 nm [2] [%]
substantially insoluble in water		Cc1ccc(C=NNC(=O)CCCCC(=O)NN=Cc2ccc(C)cc2)cc1 [(bis 4-methyl)adiponylbis(hydrazone)]		
	182.5 to 185.5	NNC(=O)CCCCC(=O)NN [Example 2, Adipic dihydrazide]		

Second part, the compound before the results:

Structure (SMILES)	Water solubility, in words [1]	melting point [°C]	Reduction of peak absorbance between 220-240 nm [2] [%]	Reduction of peak absorbance between 241-350 nm [2] [%]
NNC(=O)CCCC(=O)NN [Example 4, Glutaric dihydrazide]		176.3 to 178.6		
NNC(=O)CCCCCC(=O)NN [Example 5, Pimelic dihydrazide]		183.2 to 185	70	80
NNC(=O)CCCCCCC(=O)NN [Example 6, Suberic dihydrazide]		186.9 to 189.1		
